Drawing on BindingDB's records for patent US11993596 (Chia Tai Tianqing Pharmaceutical Group, 2024), this text covers IC50 for six compounds.

The test addresses T1, 3',5'-cyclic-AMP phosphodiesterase 4B (Homo sapiens, UniProt Q07343).
T1 construct: gene PDE4B
The test can be described thus: In Vitro Detection of the Inhibitory Activity of Compounds Against PDE 4B Enzyme. On the procedure:
The recombinant human PDE4B enzyme and enzyme substrate (1 μM cAMP) were each dissolved in newly prepared experimental buffer solution;2. The PDE4B enzyme buffer solution was transferred into reaction wells;3. The compound which was dissolved in 100% DMSO was added to the reaction wells containing PDE4B enzyme buffer solution by acoustic technique (echo 550; […]) and the mixture was incubated for 10 minutes at room temperature;4. The enzyme substrate buffer solution was added to the above reaction wells to initiate reaction;5. The resulting mixture was incubated at room temperature for 1 hour;6. The detection mixture (Transcreener AMP2/GMP2 antibody and AMP2/GMP2 AlexaFluor633 tracer) was added to stop the reaction, and the resulting mixture was incubated for 90 minutes while slowly mixing.

T1 sequence (Q07343 whole entry, looked up): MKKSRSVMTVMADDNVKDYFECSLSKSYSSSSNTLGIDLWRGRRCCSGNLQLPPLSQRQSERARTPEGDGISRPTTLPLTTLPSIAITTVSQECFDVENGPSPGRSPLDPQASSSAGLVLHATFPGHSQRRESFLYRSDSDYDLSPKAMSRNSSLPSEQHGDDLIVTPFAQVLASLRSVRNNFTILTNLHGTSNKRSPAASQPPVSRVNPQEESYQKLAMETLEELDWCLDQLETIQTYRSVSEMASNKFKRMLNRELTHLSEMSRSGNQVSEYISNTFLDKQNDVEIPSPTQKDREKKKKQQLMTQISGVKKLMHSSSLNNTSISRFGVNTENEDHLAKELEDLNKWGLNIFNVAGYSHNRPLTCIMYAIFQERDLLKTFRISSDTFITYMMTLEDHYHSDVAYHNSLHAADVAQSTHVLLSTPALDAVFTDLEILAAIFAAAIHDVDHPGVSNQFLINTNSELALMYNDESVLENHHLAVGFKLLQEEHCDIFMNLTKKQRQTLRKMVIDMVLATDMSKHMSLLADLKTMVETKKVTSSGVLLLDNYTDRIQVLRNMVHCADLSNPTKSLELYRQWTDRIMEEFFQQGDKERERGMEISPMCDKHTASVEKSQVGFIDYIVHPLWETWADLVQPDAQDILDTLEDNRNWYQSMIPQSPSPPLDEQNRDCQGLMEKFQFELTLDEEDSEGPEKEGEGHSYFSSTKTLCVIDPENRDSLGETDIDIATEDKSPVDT

The compound `CCOc1cc2c(cc1OC)-c1c/c(=N\c3c(C)cc(C)cc3C)n(CCNc3nncs3)c(=O)n1CC2` [US11993596, Compound WX005] showed an IC50 of 5.7 nM.

`CCOc1cc2c(cc1OC)-c1c/c(=N\c3c(C)cc(C)cc3C)n(CCN(O)C(=O)c3cnn[nH]3)c(=O)n1CC2` [US11993596, Compound WX064] gave an IC50 of 1.4 nM.

Compound `CCOc1cc2c(cc1OC)-c1c/c(=N\c3c(C)cc(C)cc3C)n(CCN3CCOC3=O)c(=O)n1CC2` [US11993596, Compound WX001] had an IC50 of 6.5 nM.

Compound `CCOc1cc2c(cc1OC)-c1c/c(=N\c3c(C)cc(C)cc3C)n(CCNc3nc[nH]n3)c(=O)n1CC2` [US11993596, Compound WX003] showed an IC50 of 2.2 nM.

In the case of `CCOc1cc2c(cc1OC)-c1c/c(=N\c3c(C)cc(C)cc3C)n(CCC(=O)Nc3nnc[nH]3)c(=O)n1CC2` [US11993596, Compound WX054], the half-maximal inhibitory concentration (IC50) stood at 2.7 nM.

In turn, `CCOc1cc2c(cc1OC)-c1c/c(=N\c3c(C)cc(C)cc3C)n(CCNC(=O)c3nnc[nH]3)c(=O)n1CC2` [US11993596, Compound WX015] gave an IC50 of 0.56 nM.

As a reminder, the IC50 is the concentration at which inhibition is half-maximal. The low end stands for greater potency in that assay, the high end for weaker potency in that assay.
